From patent US20240294542A1, “NLRP3 INFLAMMASOME INHIBITOR AND APPLICATION THEREOF” (TransThera Sciences (Nanjing), Inc., priority 2021, published 2024) come the findings set out here.

For this experiment, the system named is NLRP3 inflammasomes. Put plainly: Inhibitory activity against NLRP3 inflammasome in THP-1 cells (LPS/nigericin stimulation, IL-1β ELISA). It counts as cell-based. The settings on record: PMA-differentiated THP-1 cells; LPS 500 ng/mL 3 h, compound 1 h, nigericin 10 μg/mL 30 min; human IL-1β in supernatant by Elisa; read-out: IC50 (nM), inhibitory activities against NLRP3 in THP-1 cells. The protocol: Test Samples: The compounds of the present invention prepared according to exemplary methods.
THP-1 is Immortalized Human Macrophage Cell Line
• Test instrument: microplate reader (made from PE)
• 1. […] Culture plate coating: 100 μL polylysine solution was added into a 96-well cell culture plate, and the reaction was carried out at 37° C. for 30 min. The solution was discarded, and PBS was washed twice for later use. • 3. […] The resulting mixture was uniformly mixed, and finally diluted by 1:1000 times, and the cells were placed in a carbon dioxide cell incubator at 37° C. and cultured for 1 h. • c. Nigericin was added to each well at a final concentration of 10 μg/mL, and the plate was placed in a carbon dioxide cell incubator at 37° C. and cultured for 30 min. • d. The media in wells were transferred to a new culture plate, and then the plate was centrifuged at 3000 rpm for 5 min. Then the supernatant was transferred to a new 96-well plate. • e. The collected cell culture supernatant samples were tested for the content of human IL-1β by using a commercial Elisa kit, as specified in the instructions.
`Cc1ccc2c(-c3ccc(C#N)cc3O)nnc(N[C@@H]3CCCN(C)C3)c2c1` [Compound 55, (R)-3-hydroxy-4-(6-methyl-4-((1-methylpiperidin-3-yl)amino)phthalazin-1-yl)benzonitrile]: the IC50 was 4 nM.

As for `CN1CCC[C@@H](Nc2nnc(-c3ccc(C(F)F)cc3O)c3ccccc23)C1` [Compound 87, (R)-5-(difluoromethyl)-2-(4-((1-methylpiperidin-3-yl)amino)phthalazin-1-yl)phenol], the concentration for half-maximal inhibition (IC50) was 2 nM.

Take `Cc1ccc(-c2nnc(N[C@@H]3CCCN(C)C3)c3ncccc23)c(O)c1` [Compound 38, (R)-5-methyl-2-(8-((1-methylpiperidin-3-yl)amino)pyrido[2,3-d]pyridazin-5-yl)phenol]: the IC50 stood at 12 nM.

Regarding `Cc1ccc2c(-c3ccc(C4CC4)cc3O)nnc(N[C@@H]3CCCN(C)C3)c2c1` [Compound 90, (R)-5-cyclopropyl-2-(6-methyl-4-((1-methylpiperidin-3-yl)amino)phthalazin-1-yl)phenol], the IC50 worked out at 7 nM.

In the case of `CN1CCC[C@@H](Nc2nnc(-c3ccc(C4CC4)cc3O)c3ccc(C#N)cc23)C1` [Compound 89, (R)-1-(4-cyclopropyl-2-hydroxyphenyl)-4-((1-methylpiperidin-3-yl)amino)phthalazine-6-carbonitrile], the IC50 is 7 nM.

For `CN1CCC[C@@H](Nc2nnc(-c3ccc(C#N)cc3O)c3ccsc23)C1` [Compound 77, (R)-3-hydroxy-4-(7-((1-methylpiperidin-3-yl)amino)thieno[2,3-d]pyridazin-4-yl)benzonitrile], the IC50 was determined as 2 nM.

For `CC(C)(O)CN1CCC[C@@H](Nc2nnc(-c3ccc(C#N)cc3O)c3ccccc23)C1` [Compound 126], the IC50 is 5 nM.

In the case of `Cc1ccc(-c2nnc(N[C@@H]3CCCN(C)C3)c3c2CCCCC3)c(O)c1` [Compound 26a, (R)-5-methyl-2-(4-((1-methylpiperidin-3-yl)amino)-6,7,8,9-tetrahydro-5H-cyclohepta[d]pyridazin-1-yl)phenol], the IC50 was found to be 4 nM.

As for `CN1CCC[C@@H](Nc2nnc(-c3ccc(C#N)cc3O)c3sccc23)C1` [Compound 78, (R)-3-hydroxy-4-(4-((1-methylpiperidin-3-yl)amino)thieno[2,3-d]pyridazin-7-yl)benzonitrile], the IC50 worked out at 2 nM.

With `COc1ccc(-c2nnc(N[C@@H]3CCCN(C)C3)c3ccccc23)c(O)c1` [Compound 74, (R)-5-methoxy-2-(4-((1-methylpiperidin-3-yl)amino)phthalazin-1-yl)phenol], the IC50 is 6 nM.

Take `CN1CCC[C@@H](Nc2nnc(-c3ccc(F)c(F)c3O)c3c2CCCC3)C1` [Compound 31a, (R)-2,3-difluoro-6-(4-((1-methylpiperidin-3-yl)amino)-5,6,7,8-tetrahydrophthalazin-1-yl)phenol]: the IC50 worked out at 6 nM.

`Cc1ccc(-c2nnc(N[C@@H]3CCCN(C)C3)c3cccc(F)c23)c(O)c1` [Compound 6, (R)-2-(8-fluoro-4-((1-methylpiperidin-3-yl)amino)phthalazin-1-yl)-5-methylphenol]: the concentration for half-maximal inhibition (IC50) is 11 nM.

As for `N#Cc1ccc(-c2nnc(N[C@@H]3CCCN(C4CC4)C3)c3c2CCCC3)c(O)c1` [Compound 21a, (R)-4-(4-((1-cyclopropylpiperidin-3-yl)amino)-5,6,7,8-tetrahydrophthalazin-1-yl)-3-hydroxybenzonitrile], the IC50 came out at 14 nM.

With `Cc1cc(C#N)ccc1-c1nnc(N[C@@H]2CCCN(C)C2)c2ccccc12` [Compound 118, (R)-3-methyl-4-(4-((1-methylpiperidin-3-yl)amino)phthalazin-1-yl)benzonitrile], the IC50 was 23 nM.

For `N#Cc1ccc(-c2nnc(N[C@@H]3CCCN(C4CC4)C3)c3ccccc23)c(O)c1` [Compound 111, (R)-4-(4-((1-cyclopropylpiperidin-3-yl)amino)phthalazin-1-yl)-3-hydroxybenzonitrile], the half-inhibitory concentration (IC50) came out at 4 nM.

Take `Cc1ccc(-c2nnc(N[C@@H]3CCCN(C)C3)c3cc(C(F)(F)F)ccc23)c(O)c1` [Compound 24, (R)-5-methyl-2-(4-((1-methylpiperidin-3-yl)amino)-6-(trifluoromethyl)phthalazin-1-yl)phenol]: the IC50 stood at 14 nM.

`N#Cc1ccc(-c2nnc(N[C@@H]3CCCN(CCO)C3)c3ccccc23)c(O)c1` [Compound 127, (R)-3-hydroxy-4-(4-((1-(2-hydroxyethyl)piperidin-3-yl)amino)phthalazin-1-yl)benzonitrile]: the IC50 was determined as 4 nM.

Regarding `Cc1ccc(-c2nnc(N[C@@H]3CCCN(C)C3)c3ccsc23)c(O)c1` [Compound 48, (R)-5-methyl-2-(4-((1-methylpiperidin-3-yl)amino)thieno[2,3-d]pyridazin-7-yl)phenol], the IC50 worked out at 2 nM.

Take `Cc1ccc(-c2nnc(N[C@@H]3CCCN(C)C3)c3cc(C#N)ccc23)c(O)c1` [Compound 20, (R)-1-(2-hydroxy-4-methylphenyl)-4-((1-methylpiperidin-3-yl)amino)phthalazine-6-carbonitrile]: the half-maximal inhibitory concentration (IC50) stood at 12 nM.

As to `CN1CCC[C@@H](Nc2nnc(-c3ccc(C4CC4)cc3O)c3ccccc23)C1` [Compound 72, (R)-5-cyclopropyl-2-(4-((1-methylpiperidin-3-yl)amino)phthalazin-1-yl)phenol], the IC50 was determined as 1 nM.

On to `CC(C)N1CCC[C@@H](Nc2nnc(-c3ccc(C#N)cc3O)c3ccccc23)C1` [Compound 125, (R)-3-hydroxy-4-(4-((1-isopropylpiperidin-3-yl)amino)phthalazin-1-yl)benzonitrile], for which the IC50 was determined as 3 nM.

For the compound `Cc1ccc(-c2nnc(N[C@@H]3CCCN(C)C3)c3c2CCC3)c(O)c1` [Compound 3a, (R)-5-methyl-2-(4-((1-methylpiperidin-3-yl)amino)-6,7-dihydro-5H-cyclopenta[d]pyridazin-1-yl)phenol], the IC50 came to 4 nM.

For `C[C@]1(O)C[C@@H](Nc2nnc(-c3ccc(C(F)(F)F)cc3O)c3c2CCCC3)C1` [Compound 32a, 2-(4-(((cis)-3-hydroxy-3-methylcyclobutyl)amino)-5,6,7,8-tetrahydrophthalazin-1-yl)-5-(trifluoromethyl)phenol], the IC50 came out at 7 nM.

For `Cc1ccc(-c2nnc(N[C@@H]3CCCN(C)C3)c3sccc23)c(O)c1` [Compound 70, (R)-5-methyl-2-(7-((1-methylpiperidin-3-yl)amino)thieno[2,3-d]pyridazin-4-yl)phenol], the IC50 came to 1 nM.

Take `Cc1ccc(-c2nnc(N[C@@H]3CCCN(C)C3)c3ccc(C)cc23)c(O)c1` [Compound 3, (R)-5-methyl-2-(7-methyl-4-((1-methylpiperidin-3-yl)amino)phthalazin-1-yl)phenol]: the half-inhibitory concentration (IC50) worked out at 24 nM.

As to `Cc1ccc(-c2nnc(N[C@@H]3CCCN(C)C3)c3ccncc23)c(O)c1` [Compound 49, (R)-5-methyl-2-(1-((1-methylpiperidin-3-yl)amino)pyrido[3,4-d]pyridazin-4-yl)phenol], the IC50 was found to be 9 nM.

With `Cc1ccc(-c2nnc(N[C@@H]3CCCN(C)C3)c3c2C2CCC3CC2)c(O)c1` [Compound 6a, (R)-5-methyl-2-(4-((1-methylpiperidin-3-yl)amino)-5,6,7,8-tetrahydro-5,8-ethanophthalazin-1-yl)phenol], the IC50 stood at 1 nM.

In the case of `CN1CCC[C@@H](Nc2nnc(-c3ccc(C#N)cc3O)c3c2CCCC3)C1` [Compound 2a, (R)-3-hydroxy-4-(4-((1-methylpiperidin-3-yl)amino)-5,6,7,8-tetrahydrophthalazin-1-yl)benzonitrile], the IC50 was determined as 3 nM.

`Cc1ccc(-c2nnc(N[C@@H]3CCCN(C)C3)c3c(F)cccc23)c(O)c1` [Compound 9, (R)-2-(5-fluoro-4-((1-methylpiperidin-3-yl)amino)phthalazin-1-yl)-5-methylphenol]: the IC50 was found to be 3 nM.

`Cc1ccc2c(N[C@@H]3CCCN(C)C3)nnc(-c3ccc(C#N)cc3O)c2c1` [Compound 54, (R)-3-hydroxy-4-(7-methyl-4-((1-methylpiperidin-3-yl)amino)phthalazin-1-yl)benzonitrile]: the IC50 came to 13 nM.

Consider `Cc1ccc(-c2nnc(N[C@@H]3CCCN(C)C3)c3cc(Cl)ccc23)c(O)c1` [Compound 12, (R)-2-(6-chloro-4-((1-methylpiperidin-3-yl)amino)phthalazin-1-yl)-5-methylphenol], for which the IC50 is 4 nM.

On to `N#Cc1ccc(-c2nnc(N[C@@H]3CCCOC3)c3ccccc23)c(O)c1` [Compound 112, (R)-3-hydroxy-4-(4-((tetrahydro-2H-pyran-3-yl)amino)phthalazin-1-yl)benzonitrile], for which the IC50 came to 16 nM.

Take `COc1ccc2c(-c3ccc(C)cc3O)nnc(N[C@@H]3CCCN(C)C3)c2c1` [Compound 16, (R)-2-(6-methoxy-4-((1-methylpiperidin-3-yl)amino)phthalazin-1-yl)-5-methylphenol]: the concentration for half-maximal inhibition (IC50) worked out at 7 nM.

As for `COc1ccc(-c2nnc(N[C@@H]3CCCN(C)C3)c3c2CCCC3)c(O)c1` [Compound 23a, (R)-5-methoxy-2-(4-((1-methylpiperidin-3-yl)amino)-5,6,7,8-tetrahydrophthalazin-1-yl)phenol], the IC50 came out at 6 nM.

Take `Cc1ccc(-c2nnc(N[C@@H]3CCCN(C)C3)c3c2CCCC3)c(O)c1F` [Compound 29a, (R)-2-fluoro-3-methyl-6-(4-((1-methylpiperidin-3-yl)amino)-5,6,7,8-tetrahydrophthalazin-1-yl)phenol]: the IC50 was determined as 1 nM.
